Columns and labels:
[1] = target: T1, ACE from the lung of rabbit (Oryctolagus cuniculus, UniProt P12822); experiment: Measurement of ACE inhibitory activity by Cushman and Cheung method; type: biochemical; conditions: substrate hippuryl-L-histidyl-L-leucine, pH 8.3, 37° C. for 30 minutes, no pre-incubation; determined by extrapolation on the graph; read-out: concentration that indicates 50% inhibition (IC50) of ACE
T1 construct: ACE used was a freeze dry product of ACE from the lung of rabbit (manufactured by Sigma); purchased Sigma; host or cells: rabbit lung tissue
T1 sequence (P12822 34-1310): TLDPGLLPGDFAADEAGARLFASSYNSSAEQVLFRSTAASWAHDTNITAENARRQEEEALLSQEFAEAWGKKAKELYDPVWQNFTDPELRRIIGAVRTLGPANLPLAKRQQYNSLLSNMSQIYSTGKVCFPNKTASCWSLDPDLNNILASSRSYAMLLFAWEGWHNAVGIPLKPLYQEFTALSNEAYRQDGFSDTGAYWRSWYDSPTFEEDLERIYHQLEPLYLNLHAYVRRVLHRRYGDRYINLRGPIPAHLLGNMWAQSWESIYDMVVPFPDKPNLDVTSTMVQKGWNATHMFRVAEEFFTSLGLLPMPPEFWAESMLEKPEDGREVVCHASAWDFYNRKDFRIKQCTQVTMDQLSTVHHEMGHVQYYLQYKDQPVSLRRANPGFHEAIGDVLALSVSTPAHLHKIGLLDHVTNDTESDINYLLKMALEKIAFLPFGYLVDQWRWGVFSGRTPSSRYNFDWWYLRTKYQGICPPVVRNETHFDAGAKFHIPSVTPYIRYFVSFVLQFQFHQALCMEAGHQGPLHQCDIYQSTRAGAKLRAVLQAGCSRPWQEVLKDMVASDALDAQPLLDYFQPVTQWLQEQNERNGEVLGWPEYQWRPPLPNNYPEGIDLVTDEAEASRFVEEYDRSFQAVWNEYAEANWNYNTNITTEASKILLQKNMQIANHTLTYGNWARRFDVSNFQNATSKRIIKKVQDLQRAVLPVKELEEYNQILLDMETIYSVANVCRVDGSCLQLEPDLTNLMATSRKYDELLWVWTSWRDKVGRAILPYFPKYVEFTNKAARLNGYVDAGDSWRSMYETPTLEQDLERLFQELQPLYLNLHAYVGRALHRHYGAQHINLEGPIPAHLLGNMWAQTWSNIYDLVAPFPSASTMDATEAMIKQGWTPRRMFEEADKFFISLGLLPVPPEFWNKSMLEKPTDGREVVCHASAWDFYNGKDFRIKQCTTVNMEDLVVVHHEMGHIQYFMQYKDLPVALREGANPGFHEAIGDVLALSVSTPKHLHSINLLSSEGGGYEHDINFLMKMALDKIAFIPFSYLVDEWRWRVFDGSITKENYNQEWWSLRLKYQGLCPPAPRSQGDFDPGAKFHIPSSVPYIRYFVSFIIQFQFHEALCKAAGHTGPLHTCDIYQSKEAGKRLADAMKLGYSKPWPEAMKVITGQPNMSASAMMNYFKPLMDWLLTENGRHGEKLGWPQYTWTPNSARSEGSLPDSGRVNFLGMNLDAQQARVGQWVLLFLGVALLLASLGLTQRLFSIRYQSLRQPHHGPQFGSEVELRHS
Source text: The separation and purification process comprises the steps of: injecting the extract solution obtained in the extraction process into a column filled with the cation exchange resin or anion exchange resin by a known method; washing the column with water and eluting the column with the aqueous electrolyte solution as the eluant; and measuring the ACE inhibitory activity of the fractions obtained to collect the fractions having the ACE inhibitory activity. Known methods such as the method of Cushman and Cheung may be used for measuring the ACE inhibitory activity.
<Measurement of ACE Inhibitory Activity>
The ACE inhibitory activity was measured as follows by Cushman and Cheung method. […]
After mixing the compositions of the reaction solution (i), (ii), (iii), and (iv), enzyme solution (v) was added to the mixed solution without pre-incubation, and the solution was allowed to react (incubate) at 37° C. for 30 minutes. […] The extract solution was evaporated to dryness using a centrifugal evaporator, and the residue was dissolved in 1 ml of water to measure the concentration of the extract by absorbance at 228 nm using a spectrophotometer. The measured absorbance was defined as ODs (ODs1, ODs2 and ODs3) for the measurements using samples solutions 1, 2 and 3, respectively. […]

[2] = Solubility (other chemical and physical properties); type: physicochemical; conditions: in water, dilute acid and dilute alkali
Protocol: While the novel substance of the invention is positive to the ninhydrin reaction, the reaction is suppressed by Cu^2+ ions. […] Almost no usual amino acids are detected when amino acids are detected with an automatic amino acid analyzer after decomposing the novel substance of the invention with 6N HCl at 110° C. for 16 hours, and the decomposition product has a complicated composition. The novel substance of the invention has a melting point of 275 to 280° C. and a specific rotation [α]D^23.6 of −40° (c=0.4 g/100 ml; solvent=water) and [α]D^23.6 of −34.5° (c=0.2 g/100 ml/; solvent=1N HCl).

| Compound | IC50 [1] | solubility [2] |
| --- | --- | --- |
| N[C@@H](CCN[C@@H](CCN1CC[C@H]1C(=O)O)C(=O)O)C(=O)O [nicotianamine, Nicotianamine] | 85 nM |  |
| N[C@H](C(=O)O)C(O)CN[C@@H](CCN1CC[C@H]1C(=O)O)C(=O)O (stereo partly drawn) [2″-hydroxynicotianamine] | 80 nM | soluble in water, dilute acid and dilute alkali |
